The source made the active and inactive calls. No cut-off for these calls is given here.
Assays:
PC-12 [1] = test: Neuroprotective activity against Abeta25-35-induced […] cells assessed as cell viability at 10 uM preincubated for 2 hrs prior Abeta25-35 challenge measured after 24 hrs by MTT assay; format: functional; details: Rattus norvegicus; for viability at 10 µM: read-out: Activity
PC-12 [2] = test: Neuroprotective activity against Abeta25-35-induced […] cells assessed as cell viability at 1 uM preincubated for 2 hrs prior Abeta25-35 challenge measured after 24 hrs by MTT assay; format: functional; details: Rattus norvegicus; for viability at 1 µM: read-out: Activity
PC-12 [3] = test: Cytotoxicity against […] cells at 10 uM after 24 hrs by MTT assay; format: cell-based; details: rat, pc-12, 24 h
PC-12 [4] = test: Cytotoxicity against […] cells at 1 uM after 24 hrs by MTT assay; format: cell-based; details: rat, pc-12, 24 h
SH-SY5Y = test: Neuroprotective activity against oxygen-glucose deprivation-induced human SH-SY5Y cells assessed as cell viability at 5 uM preincubated for 2 hrs prior oxygen-glucose deprivation challenge for 1 hr measured after 24 hrs incubation under normal condition by MTT assay; format: functional; details: read-out: Activity
[5] = Solubility of the compound at 1 uM; format: physicochemical
[6] = Solubility of the compound at 10 uM; format: physicochemical
PC-12 [7] = test: Neuroprotective activity against H2O2-induced […] cells assessed as cell viability at 10 uM preincubated for 2 hrs prior H2O2 challenge measured after 24 hrs by MTT assay; format: functional; details: Rattus norvegicus, read-out: Activity

## CC(=O)[C@H]1CC[C@H]2[C@@H]3CC=C4C[C@@H](O)CC[C@]4(C)[C@H]3CC[C@]12C
PC-12 [1]
  Activity: inactive
PC-12 [2]
  Activity: inactive

## C[C@]12CC[C@H]3[C@@H](CC=C4C[C@@H](O)CC[C@@]43C)[C@@H]1CC[C@@H]2C(=O)/C=C/c1ccc(F)cc1
PC-12 [1]
  viability at 10 µM: 32.6%
PC-12 [2]
  Activity: inactive
PC-12 [3]
  Activity: Toxic

## C[C@]12CC[C@H]3[C@@H](C[C@@H]4O[C@@]45C[C@@H](O)CC[C@]35C)[C@@H]1CC[C@@H]2C(=O)/C=C/c1ccc(C#N)cc1
PC-12 [1]
  Activity: inactive
PC-12 [2]
  Activity: inactive

## C[C@]12CC[C@H]3[C@@H](CC=C4C[C@@H](O)CC[C@@]43C)[C@@H]1CC[C@@H]2C(=O)/C=C/c1ccco1
PC-12 [1]
  viability at 10 µM: 36.9%
PC-12 [2]
  viability at 1 µM: 52.5%
PC-12 [3]
  Activity: Toxic
PC-12 [4]
  Activity: Toxic

## CCOc1ccccc1/C=C/C(=O)[C@H]1CC[C@H]2[C@@H]3C[C@@H]4O[C@@]45C[C@@H](O)CC[C@]5(C)[C@H]3CC[C@]12C
PC-12 [1]
  viability at 10 µM: 49.5%
PC-12 [2]
  Activity: inactive
SH-SY5Y
  viability at 5 µM: 98.8%
PC-12 [3]
  Activity: Toxic

## C[C@]12CC[C@H]3[C@@H](CC=C4C[C@@H](O)CC[C@@]43C)[C@@H]1CC[C@@H]2C(=O)/C=C/c1ccc(Cl)cc1Cl
PC-12 [1]
  viability at 10 µM: 34.5%
PC-12 [2]
  Activity: inactive
PC-12 [3]
  Activity: Toxic

## C[C@]12CC[C@H]3[C@@H](CC=C4C[C@@H](O)CC[C@@]43C)[C@@H]1CC[C@@H]2C(=O)/C=C/c1cccc([N+](=O)[O-])c1
PC-12 [1]
  viability at 10 µM: 37.8%
PC-12 [2]
  viability at 1 µM: 51.2%
PC-12 [3]
  Activity: Toxic
PC-12 [4]
  Activity: Toxic

## O=C(O[C@@H]1Cc2c(O)cc(O)cc2O[C@@H]1c1cc(O)c(O)c(O)c1)c1cc(O)c(O)c(O)c1 [EPIGALOCATECHIN GALLATE]
PC-12 [1]
  viability at 10 µM: 65.4%

## C[C@]12CC[C@H]3[C@@H](C[C@@H]4O[C@@]45C[C@@H](O)CC[C@]35C)[C@@H]1CC[C@@H]2C(=O)/C=C/c1ccccc1
PC-12 [1]
  viability at 10 µM: 70.5%
PC-12 [2]
  viability at 1 µM: 64.8%

## CCOc1ccc(/C=C/C(=O)[C@H]2CC[C@H]3[C@@H]4CC=C5C[C@@H](O)CC[C@]5(C)[C@H]4CC[C@]23C)cc1OC
PC-12 [1]
  viability at 10 µM: 26.7%
PC-12 [2]
  Activity: inactive
PC-12 [3]
  Activity: Toxic

## CCOc1ccc(/C=C/C(=O)[C@H]2CC[C@H]3[C@@H]4C[C@@H]5O[C@@]56C[C@@H](O)CC[C@]6(C)[C@H]4CC[C@]23C)cc1OC
PC-12 [1]
  Activity: inactive
PC-12 [2]
  viability at 1 µM: 61.1%

## C[C@]12CC[C@H]3[C@@H](CC=C4C[C@@H](O)CC[C@@]43C)[C@@H]1CC[C@@H]2C(=O)/C=C/c1ccccc1F
PC-12 [1]
  viability at 10 µM: 38.3%
PC-12 [2]
  viability at 1 µM: 53.1%
PC-12 [3]
  Activity: Toxic
PC-12 [4]
  Activity: Toxic

## C[C@]12CC[C@H]3[C@@H](C[C@@H]4O[C@@]45C[C@@H](O)CC[C@]35C)[C@@H]1CC[C@@H]2C(=O)/C=C/c1cccc([N+](=O)[O-])c1
PC-12 [1]
  viability at 10 µM: 31.3%
PC-12 [2]
  Activity: inactive
PC-12 [3]
  Activity: Toxic

## C[C@]12CC[C@H]3[C@@H](CC=C4C[C@@H](O)CC[C@@]43C)[C@@H]1CC[C@@H]2C(=O)/C=C/c1ccccc1C(F)(F)F
PC-12 [1]
  Activity: inactive
PC-12 [2]
  Activity: inactive

## CC(C)c1ccc(/C=C/C(=O)[C@H]2CC[C@H]3[C@@H]4C[C@@H]5O[C@@]56C[C@@H](O)CC[C@]6(C)[C@H]4CC[C@]23C)cc1
PC-12 [1]
  viability at 10 µM: 49.8%
PC-12 [2]
  Activity: inactive
PC-12 [3]
  Activity: Toxic

## C[C@]12CC[C@H]3[C@@H](C[C@@H]4O[C@@]45C[C@@H](O)CC[C@]35C)[C@@H]1CC[C@@H]2C(=O)/C=C/c1ccc(Cl)cc1Cl
PC-12 [1]
  viability at 10 µM: 6%
PC-12 [2]
  Activity: inactive
PC-12 [3]
  Activity: Toxic

## CC(C)c1ccc(/C=C/C(=O)[C@H]2CC[C@H]3[C@@H]4CC=C5C[C@@H](O)CC[C@]5(C)[C@H]4CC[C@]23C)cc1
PC-12 [1]
  viability at 10 µM: 34.9%
PC-12 [2]
  Activity: inactive
PC-12 [3]
  Activity: Toxic

## CCOc1ccccc1/C=C/C(=O)[C@H]1CC[C@H]2[C@@H]3CC=C4C[C@@H](O)CC[C@]4(C)[C@H]3CC[C@]12C
PC-12 [1]
  Activity: inactive
PC-12 [2]
  Activity: inactive

## C[C@]12CC[C@H]3[C@@H](C[C@@H]4O[C@@]45C[C@@H](O)CC[C@]35C)[C@@H]1CC[C@@H]2C(=O)/C=C/c1ccc(Br)cc1
PC-12 [1]
  viability at 10 µM: 32.5%
PC-12 [2]
  viability at 1 µM: 50.1%
PC-12 [3]
  Activity: Toxic
PC-12 [4]
  Activity: Toxic

## C[C@]12CC[C@H]3[C@@H](CC=C4C[C@@H](O)CC[C@@]43C)[C@@H]1CC[C@@H]2C(=O)/C=C/c1ccc(C#N)cc1
[5]
  solubility: Insoluble
[6]
  solubility: Insoluble

## C[C@]12CC[C@H]3[C@@H](C[C@@H]4O[C@@]45C[C@@H](O)CC[C@]35C)[C@@H]1CC[C@@H]2C(=O)/C=C/c1ccc(F)cc1
PC-12 [1]
  viability at 10 µM: 47.6%
PC-12 [2]
  Activity: inactive
PC-12 [3]
  Activity: Toxic

## COc1ccc(/C=C/C(=O)[C@H]2CC[C@H]3[C@@H]4CC=C5C[C@@H](O)CC[C@]5(C)[C@H]4CC[C@]23C)cc1
PC-12 [1]
  viability at 10 µM: 25.7%
PC-12 [2]
  Activity: inactive
PC-12 [3]
  Activity: Toxic

## C[C@]12CC[C@H]3[C@@H](CC=C4C[C@@H](O)CC[C@@]43C)[C@@H]1CC[C@@H]2C(=O)/C=C/c1ccccn1
PC-12 [1]
  Activity: inactive
PC-12 [2]
  Activity: inactive

## C[C@]12CC[C@H]3[C@@H](CC=C4C[C@@H](O)CC[C@@]43C)[C@@H]1CC[C@@H]2C(=O)/C=C/c1ccc(Cl)cc1
[5]
  solubility: Insoluble
[6]
  solubility: Insoluble

## COc1ccccc1/C=C/C(=O)[C@H]1CC[C@H]2[C@@H]3CC=C4C[C@@H](O)CC[C@]4(C)[C@H]3CC[C@]12C
PC-12 [1]
  viability at 10 µM: 74.5%
PC-12 [2]
  viability at 1 µM: 64.1%
PC-12 [7]
  viability at 10 µM: 83.7%

## C[C@]12CC[C@H]3[C@@H](C[C@@H]4O[C@@]45C[C@@H](O)CC[C@]35C)[C@@H]1CC[C@@H]2C(=O)/C=C/c1ccccc1C(F)(F)F
PC-12 [1]
  Activity: inactive
PC-12 [2]
  Activity: inactive

## C[C@]12CC[C@H]3[C@@H](CC=C4C[C@@H](O)CC[C@@]43C)[C@@H]1CC[C@@H]2C(=O)/C=C/c1ccccc1
PC-12 [1]
  viability at 10 µM: 29%
PC-12 [2]
  Activity: inactive
PC-12 [3]
  Activity: Toxic

## COc1cccc(/C=C/C(=O)[C@H]2CC[C@H]3[C@@H]4C[C@@H]5O[C@@]56C[C@@H](O)CC[C@]6(C)[C@H]4CC[C@]23C)c1
PC-12 [1]
  Activity: inactive
PC-12 [2]
  Activity: inactive

## C[C@]12CC[C@H]3[C@@H](CC=C4C[C@@H](O)CC[C@@]43C)[C@@H]1CC[C@@H]2C(=O)/C=C/c1ccccc1Br
PC-12 [1]
  Activity: inactive
PC-12 [2]
  Activity: inactive

## C[C@]12CC[C@H]3[C@@H](C[C@@H]4O[C@@]45C[C@@H](O)CC[C@]35C)[C@@H]1CC[C@@H]2C(=O)/C=C/c1ccco1
PC-12 [1]
  viability at 10 µM: 82.7%
PC-12 [2]
  Activity: inactive

## C[C@]12CC[C@H]3[C@@H](C[C@@H]4O[C@@]45C[C@@H](O)CC[C@]35C)[C@@H]1CC[C@@H]2C(=O)/C=C/c1ccccc1Br
PC-12 [1]
  viability at 10 µM: 61.2%
PC-12 [2]
  Activity: inactive

## COc1ccc(/C=C/C(=O)[C@H]2CC[C@H]3[C@@H]4C[C@@H]5O[C@@]56C[C@@H](O)CC[C@]6(C)[C@H]4CC[C@]23C)cc1
PC-12 [1]
  viability at 10 µM: 29.6%
PC-12 [2]
  Activity: inactive
PC-12 [3]
  Activity: Toxic

## C[C@]12CC[C@H]3[C@@H](C[C@@H]4O[C@@]45C[C@@H](O)CC[C@]35C)[C@@H]1CC[C@@H]2C(=O)/C=C/c1ccc(Cl)cc1
PC-12 [1]
  viability at 10 µM: 39.1%
PC-12 [2]
  Activity: inactive
PC-12 [3]
  Activity: Toxic

## CC(=O)[C@H]1CC[C@H]2[C@@H]3C[C@@H]4O[C@@]45C[C@@H](O)CC[C@]5(C)[C@H]3CC[C@]12C
PC-12 [1]
  Activity: inactive
PC-12 [2]
  Activity: inactive

## COc1cccc(/C=C/C(=O)[C@H]2CC[C@H]3[C@@H]4CC=C5C[C@@H](O)CC[C@]5(C)[C@H]4CC[C@]23C)c1
PC-12 [1]
  viability at 10 µM: 44%
PC-12 [2]
  viability at 1 µM: 50.3%
PC-12 [3]
  Activity: Toxic
PC-12 [4]
  Activity: Toxic

## C[C@]12CC[C@H]3[C@@H](CC=C4C[C@@H](O)CC[C@@]43C)[C@@H]1CC[C@@H]2C(=O)/C=C/c1ccc(Br)cc1
[5]
  solubility: Insoluble
[6]
  solubility: Insoluble

## Cc1ccccc1/C=C/C(=O)[C@H]1CC[C@H]2[C@@H]3C[C@@H]4O[C@@]45C[C@@H](O)CC[C@]5(C)[C@H]3CC[C@]12C
PC-12 [1]
  viability at 10 µM: 49.9%
PC-12 [2]
  Activity: inactive
PC-12 [3]
  Activity: Toxic

## C[C@]12CC[C@H]3[C@@H](C[C@@H]4O[C@@]45C[C@@H](O)CC[C@]35C)[C@@H]1CC[C@@H]2C(=O)/C=C/c1ccccc1F
PC-12 [1]
  viability at 10 µM: 36.7%
PC-12 [2]
  Activity: inactive
PC-12 [3]
  Activity: Toxic

## C[C@]12CC[C@H]3[C@@H](C[C@@H]4O[C@@]45C[C@@H](O)CC[C@]35C)[C@@H]1CC[C@@H]2C(=O)/C=C/c1ccccn1
PC-12 [1]
  viability at 10 µM: 29.7%
PC-12 [2]
  Activity: inactive
PC-12 [3]
  Activity: Toxic

## Cc1ccccc1/C=C/C(=O)[C@H]1CC[C@H]2[C@@H]3CC=C4C[C@@H](O)CC[C@]4(C)[C@H]3CC[C@]12C
PC-12 [1]
  viability at 10 µM: 50.4%
PC-12 [2]
  Activity: inactive
SH-SY5Y
  viability at 5 µM: 84.8%
PC-12 [3]
  Activity: Toxic
